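The compound was tested at five concentrations on cells cultured in 96-well plates, with a 48-hour exposure period. At the GI50, growth is halved.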 Active and inactive are the calls of the source. Rule as the data show it: active = GI50 up to about 1.1 µM and inactive = higher.
What was measured:
Assay in all cases: inhibition of tumour cell growth, NCI panel, 48 h
SW-620 = tested on: SW-620
MOLT-4 = tested on: MOLT-4
TK-10 = tested on: TK-10
HCT-116 = tested on: HCT-116
HCC 2998 = tested on: HCC 2998
CAKI-1 = tested on: CAKI-1
MDA-N = tested on: MDA-N
SF-268 = tested on: SF-268
SF-539 = tested on: SF-539
LOX IMVI = tested on: LOX IMVI
HOP-92 = tested on: HOP-92
OVCAR-8 = tested on: OVCAR-8
MCF7 = tested on: MCF7
K562 = tested on: K562
UACC-62 = tested on: UACC-62
IGROV-1 = tested on: IGROV-1
A498 = tested on: A498
U-251 = tested on: U-251
RPMI-8226 = tested on: RPMI-8226
NCI-H522 = tested on: NCI-H522

Row | Structure (SMILES) | GI50 (SW-620) | GI50 (MOLT-4) | GI50 (TK-10) | GI50 (HCT-116) | GI50 (HCC 2998) | GI50 (CAKI-1) | GI50 (MDA-N) | GI50 (SF-268) | GI50 (SF-539) | GI50 (LOX IMVI) | GI50 (HOP-92) | GI50 (OVCAR-8) | GI50 (MCF7) | GI50 (K562) | GI50 (UACC-62) | GI50 (IGROV-1) | GI50 (A498) | GI50 (U-251) | GI50 (RPMI-8226) | GI50 (NCI-H522)
1 | N=C(N)SCc1ccc2c(c1)S(=O)(=O)c1ccccc1O2 | 17.8 µM (inactive) | 19.1 µM (inactive) | 15.7 µM (inactive) | 22 µM (inactive) | 22.1 µM (inactive) | 21.3 µM (inactive) | 17.7 µM (inactive) | 33.7 µM (inactive) | 26.1 µM (inactive) | 19.4 µM (inactive) | 15.7 µM (inactive) | 30.1 µM (inactive) | 14.5 µM (inactive) | 26.7 µM (inactive) | 15.8 µM (inactive) | 16.4 µM (inactive) | 17.5 µM (inactive) | 18.1 µM (inactive) | 37.7 µM (inactive) | –
2 | COc1ccc2c(c1)OC1c3ccccc3OCC21 (centres undefined) | 96.8 µM (inactive) | 27.7 µM (inactive) | > 100 µM (inactive) | 77.3 µM (inactive) | 39.9 µM (inactive) | > 100 µM (inactive) | 36.6 µM (inactive) | 32.8 µM (inactive) | > 100 µM (inactive) | 81.3 µM (inactive) | 61.8 µM (inactive) | > 100 µM (inactive) | 88.1 µM (inactive) | 31.8 µM (inactive) | > 100 µM (inactive) | > 100 µM (inactive) | > 100 µM (inactive) | > 100 µM (inactive) | 71 µM (inactive) | –
3 | CCCCCCCCCC1(N=[N+]=[N-])C(=O)c2ccccc2N(C)C1=O (centres undefined) | 19.3 µM (inactive) | 7.13 µM (inactive) | 32.3 µM (inactive) | 21.1 µM (inactive) | 33 µM (inactive) | 34.4 µM (inactive) | 30.7 µM (inactive) | 40 µM (inactive) | 70 µM (inactive) | 15.3 µM (inactive) | 20.2 µM (inactive) | – | 29.9 µM (inactive) | 19.8 µM (inactive) | 17.3 µM (inactive) | 27.2 µM (inactive) | 20.8 µM (inactive) | 2.22 µM (inactive) | 39.9 µM (inactive) | –
4 | CCNC(C)(C)C(SS)c1ccc(Br)cc1 (centres undefined) | 22.4 µM (inactive) | 21.1 µM (inactive) | 53.3 µM (inactive) | 29.6 µM (inactive) | – | 78 µM (inactive) | 45.6 µM (inactive) | 60.8 µM (inactive) | 38 µM (inactive) | 26.1 µM (inactive) | > 100 µM (inactive) | > 100 µM (inactive) | 39.4 µM (inactive) | 36.1 µM (inactive) | 88.9 µM (inactive) | > 100 µM (inactive) | > 100 µM (inactive) | 44.3 µM (inactive) | 27.8 µM (inactive) | 18.4 µM (inactive)
5 | Cc1sc(Nc2ccccc2[N+](=O)[O-])c(C#N)c1C | – | > 100 µM (inactive) | – | 17.5 µM (inactive) | > 100 µM (inactive) | 17.1 µM (inactive) | > 100 µM (inactive) | 14.5 µM (inactive) | 21.5 µM (inactive) | – | 18.7 µM (inactive) | 27.7 µM (inactive) | 94.2 µM (inactive) | > 100 µM (inactive) | 77.8 µM (inactive) | – | 29.4 µM (inactive) | 21.3 µM (inactive) | > 100 µM (inactive) | 2.7 µM (inactive)
6 | N[C@@H](CCC(=O)NCP(=O)(O)O)C(=O)O | > 100 µM (inactive) | > 100 µM (inactive) | > 100 µM (inactive) | > 100 µM (inactive) | > 100 µM (inactive) | – | > 100 µM (inactive) | – | > 100 µM (inactive) | – | – | > 100 µM (inactive) | > 100 µM (inactive) | > 100 µM (inactive) | > 100 µM (inactive) | > 100 µM (inactive) | > 100 µM (inactive) | > 100 µM (inactive) | > 100 µM (inactive) | 18.2 µM (inactive)
7 | CN(C)/N=N/c1nc2c(c(=O)n(C)c(=O)n2C)n1C | > 100 µM (inactive) | > 100 µM (inactive) | > 100 µM (inactive) | > 100 µM (inactive) | > 100 µM (inactive) | > 100 µM (inactive) | > 100 µM (inactive) | > 100 µM (inactive) | – | > 100 µM (inactive) | – | > 100 µM (inactive) | 7.5 µM (inactive) | > 100 µM (inactive) | > 100 µM (inactive) | > 100 µM (inactive) | > 100 µM (inactive) | > 100 µM (inactive) | > 100 µM (inactive) | > 100 µM (inactive)
8 | Cc1ccc2nc(CN3CCCC(O)C3)cc(=O)n2c1 (centres undefined) | > 100 µM (inactive) | > 100 µM (inactive) | > 100 µM (inactive) | > 100 µM (inactive) | > 100 µM (inactive) | > 100 µM (inactive) | > 100 µM (inactive) | > 100 µM (inactive) | > 100 µM (inactive) | > 100 µM (inactive) | > 100 µM (inactive) | > 100 µM (inactive) | > 100 µM (inactive) | > 100 µM (inactive) | > 100 µM (inactive) | > 100 µM (inactive) | – | > 100 µM (inactive) | > 100 µM (inactive) | > 100 µM (inactive)
9 | CCOC(=O)c1c(O)nc2cccc3c2c1-c1cccnc1S3 | 55.3 µM (inactive) | 16.9 µM (inactive) | 44.7 µM (inactive) | 44.5 µM (inactive) | 50.2 µM (inactive) | 16.7 µM (inactive) | 39 µM (inactive) | 28.8 µM (inactive) | 27.6 µM (inactive) | 25.1 µM (inactive) | – | 35.5 µM (inactive) | 1.14 µM (inactive) | 32.1 µM (inactive) | 16.3 µM (inactive) | 16.9 µM (inactive) | – | 21.3 µM (inactive) | 17.5 µM (inactive) | 25.8 µM (inactive)
10 | CN1CCc2c(sc3ncn(Nc4ccc(Cl)cc4)c(=N)c23)C1 | > 100 µM (inactive) | > 100 µM (inactive) | > 100 µM (inactive) | > 100 µM (inactive) | – | > 100 µM (inactive) | > 100 µM (inactive) | > 100 µM (inactive) | > 100 µM (inactive) | > 100 µM (inactive) | > 100 µM (inactive) | > 100 µM (inactive) | > 100 µM (inactive) | > 100 µM (inactive) | > 100 µM (inactive) | > 100 µM (inactive) | > 100 µM (inactive) | > 100 µM (inactive) | > 100 µM (inactive) | > 100 µM (inactive)
11 | N#Cc1c(N)nc2c(c1-c1ccc(Br)cc1)CSc1ccccc1-2 | 83.4 µM (inactive) | 38.7 µM (inactive) | 73.1 µM (inactive) | 18.5 µM (inactive) | – | 14.9 µM (inactive) | 49.4 µM (inactive) | 33.1 µM (inactive) | 35 µM (inactive) | 28.6 µM (inactive) | 9.02 µM (inactive) | 55 µM (inactive) | 19.1 µM (inactive) | 32.1 µM (inactive) | 21.4 µM (inactive) | 21.9 µM (inactive) | > 100 µM (inactive) | 34.4 µM (inactive) | 18.2 µM (inactive) | –
12 | N#C[BH2-][n+]1cn(C2CC(O)C(COP(=O)(O)OC3CC(n4cnc5c(N)ncnc54)OC3CO)O2)c2nc(N)[nH]c(=O)c21 (centres undefined) | > 100 µM (inactive) | – | – | > 100 µM (inactive) | > 100 µM (inactive) | > 100 µM (inactive) | > 100 µM (inactive) | > 100 µM (inactive) | > 100 µM (inactive) | – | > 100 µM (inactive) | > 100 µM (inactive) | > 100 µM (inactive) | – | > 100 µM (inactive) | > 100 µM (inactive) | > 100 µM (inactive) | > 100 µM (inactive) | – | > 100 µM (inactive)
13 | O=C1Nc2c(Cl)cc(Cl)cc2C1=O | 18.5 µM (inactive) | 18 µM (inactive) | 95.9 µM (inactive) | 19.3 µM (inactive) | 34.7 µM (inactive) | 17.9 µM (inactive) | 8.99 µM (inactive) | – | 17.2 µM (inactive) | 14.4 µM (inactive) | 24.1 µM (inactive) | 16.9 µM (inactive) | 18.5 µM (inactive) | 29.2 µM (inactive) | 15.8 µM (inactive) | 17.7 µM (inactive) | 23.2 µM (inactive) | 21.2 µM (inactive) | – | –
14 | COc1cc(NS(C)(=O)=O)ccc1Nc1c2ccccc2nc2ccccc12 [AMSACRINE] | 0.561 µM (active) | 0.0332 µM (active) | 2.63 µM (inactive) | 0.955 µM (active) | 1.24 µM (inactive) | 0.0973 µM (active) | 3.32 µM (inactive) | 0.415 µM (active) | 0.207 µM (active) | 0.179 µM (active) | 0.524 µM (active) | 0.571 µM (active) | 0.103 µM (active) | 0.902 µM (active) | 0.285 µM (active) | 2.4 µM (inactive) | – | 0.166 µM (active) | 0.352 µM (active) | 0.668 µM (active)
15 | CC(C)=CCC/C(C)=C/CC/C(C)=C/CSc1ccccc1C(=O)O [SALIRASIB] | 35.9 µM (inactive) | 23.5 µM (inactive) | 28.4 µM (inactive) | 16.7 µM (inactive) | 18 µM (inactive) | 22.1 µM (inactive) | 22.3 µM (inactive) | 16.6 µM (inactive) | 17.5 µM (inactive) | 19.5 µM (inactive) | 25.9 µM (inactive) | 17.4 µM (inactive) | 24.8 µM (inactive) | 36.6 µM (inactive) | 17.7 µM (inactive) | 16.5 µM (inactive) | 23.7 µM (inactive) | 20.2 µM (inactive) | 32 µM (inactive) | –

Reference: ChEMBL document CHEMBL1201862, “PubChem BioAssay data set” (2004)
